Results taken from patent US10111967B2, “Complexes of RNA and cationic peptides for transfection and for immunostimulation” (CureVac AG, priority 2007, dated 2018).

System: hPBMC cells
Assay: Immunostimulation of hPBMC cells by RNA/peptide complexes, cytokine production (IL-6, TNF-alpha) by ELISA
Format: cell-based, human
Settings: hPBMCs, 24 h; nona-arginine or mRNA alone (not complexed)
Method: 15 μg RNA stabilized luciferase mRNA according to SEQ ID NO: 36 (Luc-RNActive) were mixed in different mass ratios with nona-arginine (Arg9) or poly-L-arginine (Sigma-Aldrich; P4663; 5000-15000 g/mol), thereby forming a complex. Following mass ratios were used as shown exemplarily for ((Arg)9). Poly-L-arginine was used for comparative examples following the same instructions.
HPBMC cells from peripheral blood of healthy donors were isolated using a Ficoll gradient and washed subsequently with 1×PBS (phosphate-buffered saline). The cells were then seeded on 96-well microtiter plates (200×1 03/well). […] The immunostimulatory effect upon the hPBMC cells was measured by detecting the cytokine production (Interleukin-6 and Tumor necrose factor alpha). […] Then, the plate was again washed with 1×PBS, containing 0.05% TWEEN®-20 surfactant, and ABTS (2,2′-azino-bis(3-ethylbenzthiazoline-6-sulfonic acid) was added as a substrate. The amount of cytokine was determined by measuring the absorption at 405 nm (OD405) using a standard curve with recombinant Cytokines (BD Pharmingen, Heidelberg, Germany) with the Sunrise ELISA-Reader from Tecan (Crailsheim, Germany). […]
The effect of R9H3 on immunostimulation was tested in hPBMCs. […] The immunostimulatory effect upon the hPBMC cells was measured by detecting the cytokine production (Interleukin-6 and Tumor necrose factor alpha). […]

Arg-Arg-Arg-Arg-Arg-Arg-Arg-Arg-Arg (RRRRRRRRR; Synthetic peptide - Exemplary oligopeptide according to formula I) [nona-arginine ((Arg)9) alone]
TNFalpha production: no significant TNFalpha production
